Data on one sequence can be found in US20230013244A1 (BioIncept, LLC, priority 2014, published 2023).

For assay [1], the system named is PBMCs (CD3+, CD4+/CD25+/FoxP3+, CD8+/CD25+ cells). Put plainly: FITC-PIF binding to naive T-cell subsets of PBMCs, two- and three-color flow cytometry. The format is cell-based, human.
The subject of the next assay is Lymphocytes. The assay can be described thus: FITC-PIF binding to mare immune cells, flow cytometry, lymphocytes. It counts as cell-based. The source says: (§1) Method: whole blood was collected from jugular vein of pregnant (n=4) and non-pregnant (n=8) mares into lithium heparin vacutainers. Whole blood was layered over histopaque (Sigma) density gradient and red cells were allowed to settle through the gradient, leaving a leukocyte-rich plasma layer above. Cells were washed twice in sterile PBS and any remaining RBCs lysed with 0.16 M ammonium chloride solution. […] Cell types were separated based upon their scatter characteristics. […] FIG. 20 and Table 20 show mean+/−SEM in both pregnant and non-pregnant mares, and depicts binding characteristics showing significant differences between FITC-PIF and control, P<0.001.

The next assay deals with Granulocytes. The assay can be described thus: FITC-PIF binding to mare immune cells, flow cytometry, granulocytes. The format is cell-based.
Description: as §1

In another assay the test system is Monocytes. Put plainly: FITC-PIF binding to mare immune cells, flow cytometry, monocytes. The format is cell-based.
Description: as §1

Consider “GRVDPSNKSMPKDIA [PIFscr, scrambled PIF, control peptide]”, for which the “binding to CD4+/CD25+/FoxP3+ cells” value in assay [1] (0-100 uM) is recorded as “minimal binding”. For the same sequence, in assay [1] (FIG. 10A), the “binding to CD3+/CD4+ cells” value is on record as “not replicated”. The “binding to Lymphocytes, Mean” value is 0.27 with Lymphocytes (Non-pregnant mares, 1 ug/ml); 0.12 with Lymphocytes (Pregnant mares, 1 ug/ml); 0.78 with Lymphocytes (Pregnant mares, 5 ug/ml). For the same sequence, the “binding to Granulocytes, Mean” value in the assay on Granulocytes (Non-pregnant mares, 1 ug/ml) is 0.26; with Granulocytes (Pregnant mares, 1 ug/ml), 0.09; in the assay with Granulocytes (Pregnant mares, 5 ug/ml), 0.93. In addition, the “binding to Monocytes, Mean” value in the assay on Monocytes (Non-pregnant mares, 1 ug/ml) is given as 1.10; with Monocytes (Non-pregnant mares, 5 ug/ml), 5.20; with Monocytes (Pregnant mares, 1 ug/ml), 0.78.
